Measured values taken from US20110312945A1, “CRTH2 MODULATORS” (priority 2008, published 2011).

Assays:
CRTH2 [1] = biological target: T1, CRTH2 (Homo sapiens, UniProt Q9Y5Y4); test: Human Whole Blood CD11b Antagonist Assay; assay type: cell-based; settings: eosinophil CD11b expression, challenge with 15R-Methyl-PGD2 (10 nM)
T1 construct: polymorphonuclear cells (0.5 ml; 10^6/ml cells) in PBS containing 0.9 mM CaCl2 and 0.5 mM MgCl2; endogenous in cells; host or cells: polymorphonuclear cells (eosinophils gated by flow cytometry)
T1 sequence (Q9Y5Y4 1-395): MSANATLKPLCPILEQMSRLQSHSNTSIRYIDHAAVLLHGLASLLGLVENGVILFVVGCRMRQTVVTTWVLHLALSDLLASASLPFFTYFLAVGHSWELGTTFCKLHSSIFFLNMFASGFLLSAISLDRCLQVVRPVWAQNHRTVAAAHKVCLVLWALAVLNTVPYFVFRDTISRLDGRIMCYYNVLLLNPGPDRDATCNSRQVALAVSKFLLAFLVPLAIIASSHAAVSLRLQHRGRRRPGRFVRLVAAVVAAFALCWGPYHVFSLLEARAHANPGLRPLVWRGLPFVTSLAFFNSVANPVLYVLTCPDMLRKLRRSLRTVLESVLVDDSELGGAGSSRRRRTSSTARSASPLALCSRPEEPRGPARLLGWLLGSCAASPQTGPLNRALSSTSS
Description: Human Whole Blood CD11b Antagonist Assay (modified from Nicholson, et al. Pulmonary Pharmacology and Therapeutics: 20 (2007); 52-59). The potential CRTH2 antagonist activity of certain compounds was tested in human whole blood using an assay that tests the ability of the compounds to block the CD11b expression in eosinophils by 15-R-methyl-PGD2. A CRTH2 antagonist should block CD11b expression by subsequently added 15-Methyl-PGD2. Human whole blood (200 μL) was incubated at 37° C. for 10 minutes in the presence of various concentrations of test compounds before being challenged with the agonist 15R-Methyl-PGD2 (10 nM). Reactions were terminated by the addition of ice-cold PBS+0.5% BSA+2 mMEDTA (1 mL) and centrifugation (300×g for 5 minutes at 4° C.) Cells were then incubated at 4° C. for 10 min in the presence of human IgG. Cells were then incubated for 30-45 min with a mixture of PE-Cy5-labeled mouse anti-human CD16 (10 ul; BD Biosciences) and FITC-labeled mouse anti-human CD11b (10 μL; Beckman Coulter.) After rinsing (1 mL ice-cold PBS+0.5% BSA+2 mMEDTA), red blood cells were lysed by the addition of 1 mL ice-cold H2O to the cell pellet for 30 sec-1 min immediately followed by the addition of 3.5% NaCl (300 μL.) Cells were then rinsed (2x−1 ml ice cold PBS+0.5% BSA+2 mMEDTA) and fixed in PBS containing 1% formaldehyde. The distribution of fluorescence intensities was measured by flow cytometry. Eosinophils were gated out on the basis of their granularity (high side scatter) and absence of CD-16. CD11b was then measured on this eosinophil population on the basis of fluorescence due to FITC.

CRTH2 [2] = biological target: T1, CRTH2; test: DPBS CD11b Antagonist Assay; assay type: cell-based; settings: polymorphonuclear cells in PBS, eosinophil CD11b expression, challenge with 15R-Methyl-PGD2 (10 nM)
Description: DPBS CD11b Antagonist Assay. The potential CRTH2 antagonist activity of certain compounds was tested using a CD11b expression assay using essentially the method described by Monneret et al. (J Pharmacol Exp Ther 304:349-55, 2003). Briefly, polymorphonuclear cells (0.5 ml; 10^6/ml cells) in PBS containing 0.9 mM CaCl2 and 0.5 mM MgCl2) were preincubated with various concentrations of test compounds at room temperature for 10 minutes before they were challenged with the agonist 15R-Methyl-PGD2 (10 nM). The incubations were terminated by the addition of ice-cold FACSFlow (BD Biosciences; Cat# 342003) and centrifugation (400 g for 5 minutes at 4° C.). The cells were then incubated for 30 minutes at 4° C. with a mixture of PE-labeled mouse anti-human VLA-4 (5 μl; BD Biosciences) and FITC-labeled mouse anti-human CD11b (10 μl; Beckman Coulter). The cells were then incubated with Optilyse C (0.25 ml; Beckman Coulter) for 15 minutes, centrifuged, and then fixed in PBS (0.4 ml; calcium and magnesium free) containing 1% formaldehyde. The distribution of fluorescence intensities among 60,000 cells was measured by flow cytometry. Eosinophils were gated out on the basis of their granularity (high side scatter) and labeling with VLA-4 (PE fluorescence). CD11b was then measured in the eosinophil region on the basis of fluorescence due to FITC. All data were corrected for the value obtained for the corresponding isotope control antibody.

[3] = tested on: DK-PGD2-induced systemic eosinophilia; test: DK-PGD2-Induced Systemic Eosinophilia in Rats; assay type: in vivo; settings: Rattus norvegicus, Eosinophil; female Sprague-Dawley rats, oral dosing 30 min before intracardiac 10 μg DK-PGD2, blood eosinophils at 60 min
Description: DK-PGD2-Induced Systemic Eosinophilia in Rats. Female Sprague-Dawley rats (175-250 g) were dosed orally with test compound (or vehicle). Thirty minutes after dosing, animals were anaesthetized with isoflurane. Following induction of anaesthesia, animals received an intracardiac injection of 10 μg DK-PGD2 in 0.3 ml heparinized (10 U/ml) saline. Control animals received an injection of 0.3 ml heparinized saline. Sixty minutes after the intracardiac injection, animals were again anesthetized with isoflurane and a blood sample was drawn from the abdominal aorta (into heparin) while the rat was anaesthetized but not dead. An aliquot of blood (500 μL) was mixed with an equal volume of 4% dextran (mw 500,000) and the erythrocytes were allowed to settle. A cytospin preparation was made from the resulting leukocyte rich fraction (top) and the cytospin was fixed and stained with Diff-Quick Stain kit (Dade Behring Inc, Newark, Del.). An aliquot of the leukocyte rich fraction was taken for total leukocyte count using flow cytometer (Guava EasyCyte Mini system). Differential leukocyte counts were obtained from the cytospin preparations. Blood eosinophil numbers were determined from the total leukocyte count and the percentage eosinophils.

| SMILES | IC50 (CRTH2 [1]) [nM] | IC50 (CRTH2 [2]) [nM] | ED50 [3] [mg/kg] |
| --- | --- | --- | --- |
| Cc1c(Cc2ccc(S(=O)(=O)N3CCOCC3)cc2)c2c(n1CC(=O)O)CCCC2 [Example I-6, 2-(2-Methyl-3-(4-(morpholinosulfonyl)benzyl)-4,5,6,7-tetrahydro-1H-indol-1-yl)acetic acid] | 100 to 500 | < 5 | – |
| Cc1c(Cc2ccccc2S(=O)(=O)c2ccccc2)c2c(n1CC(=O)O)CCC(C)(C)C2 [Example I-9, 2-(2,5,5-Trimethyl-3-(2-(phenylsulfonyl)benzyl)-4,5,6,7-tetrahydro-1H-indol-1-yl)acetic acid] | – | – | < 1 |
| Cc1c(Cc2ccc(S(=O)(=O)NC(C)C)cc2)c2c(n1CC(=O)O)CCCC2 [Example I-10, 2-(3-(4-(N-Isopropylsulfamoyl)benzyl)-2-methyl-4,5,6,7-tetrahydro-1H-indol-1-yl)acetic acid] | 100 to 500 | < 5 | – |
| CCOC(=O)N1CCN(S(=O)(=O)c2ccc(Cc3c4c(n(CC(=O)O)c3C)CCC(C)(C)C4)cc2)CC1 [Example I-12, 2-(3-(4-(4-(Ethoxycarbonyl)piperazin-1-ylsulfonyl)benzyl)-2,5,5-trimethyl-4,5,6,7-tetrahydro-1H-indol-1-yl)acetic acid] | 5 to 100 | < 5 | – |
| Cc1c(Cc2ccc(S(=O)(=O)N3CCCCC3)cc2)c2c(n1CC(=O)O)CCC(C)(C)C2 [Example I-13, 2-(2,5,5-Trimethyl-3-(4-(piperidin-1-ylsulfonyl)benzyl)-4,5,6,7-tetrahydro-1H-indol-1-yl)acetic acid] | 100 to 500 | < 5 | – |
| Cc1c(Cc2ccccc2S(=O)(=O)N2CCCC2)c2c(n1CC(=O)O)CCC(C)(C)C2 [Example I-14, 2-(2,5,5-Trimethyl-3-(2-(pyrrolidin-1-ylsulfonyl)benzyl)-4,5,6,7-tetrahydro-1H-indol-1-yl)acetic acid] | 5 to 100 | < 5 | – |
| Cc1c(Cc2ccccc2S(=O)(=O)N2CCOCC2)c2c(n1[C@@H](C)C(=O)O)CCC(C)(C)C2 [Example I-34, (S)-2-(2,5,5-trimethyl-3-(2-(morpholinosulfonyl)benzyl)-4,5,6,7-tetrahydro-1H-indol-1-yl)propanoic acid] | > 500 | 5 to 100 | – |
| Cc1c(Cc2ccccc2S(=O)(=O)N2CCOCC2)c2c(n1CC(=O)O)C(C)(C)CCC2 [Example I-36, 2-(2,7,7-trimethyl-3-(2-(morpholinosulfonyl)benzyl)-4,5,6,7-tetrahydro-1H-indol-1-yl)acetic acid] | 5 to 100 | < 5 | – |
| Cc1c(Sc2ccc(S(=O)(=O)N3CCCC3)cc2)c2c(n1CC(=O)O)CCC(C)(C)C2 [Example I-38, 2-(2,5,5-trimethyl-3-(4-(pyrrolidin-1-ylsulfonyl)phenylthio)-4,5,6,7-tetrahydro-1H-indol-1-yl)acetic acid] | > 500 | < 5 | – |
| Cc1c(Sc2ccc(S(=O)(=O)N3CCOCC3)cc2)c2c(n1CC(=O)O)CC(C)(C)CC2=O [Example I-41, 2-(2,6,6-trimethyl-3-(4-(morpholinosulfonyl)phenylthio)-4-oxo-4,5,6,7-tetrahydro-1H-indol-1-yl)acetic acid] | > 500 | 100 to 500 | – |
| Cc1c(Sc2ccc(S(=O)(=O)N3CCCC3)cc2)c2c(n1CC(=O)O)CC(C)(C)CC2=O [Example I-42, 2-(2,6,6-trimethyl-4-oxo-3-(4-(pyrrolidin-1-ylsulfonyl)phenylthio)-4,5,6,7-tetrahydro-1H-indol-1-yl)acetic acid] | > 500 | 100 to 500 | – |
| Cc1c(Cc2ccc(S(=O)(=O)N3CCCC3)cc2)c2c(n1CC(=O)O)CC(C)(C)CC2=O [Example I-44, 2-(2,6,6-trimethyl-4-oxo-3-(4-(pyrrolidin-1-ylsulfonyl)benzyl)-4,5,6,7-tetrahydro-1H-indol-1-yl)acetic acid] | > 500 | > 500 | – |
| Cc1c(Cc2ccc(S(=O)(=O)N3CCOCC3)cc2)c2c(n1CC(=O)O)CC(C)(C)CC2=O [Example I-45, 2-(2,6,6-trimethyl-3-(4-(morpholinosulfonyl)benzyl)-4-oxo-4,5,6,7-tetrahydro-1H-indol-1-yl)acetic acid] | > 500 | > 500 | – |
| CCOC(=O)Cn1c(C)c(Cc2ccccc2S(=O)(=O)c2ccccc2)c2c1CC(C)(C)CC2=O [Example I-63, Ethyl 2-(2,6,6-trimethyl-4-oxo-3-(2-(phenylsulfonyl)benzyl)-4,5,6,7-tetrahydro-1H-indol-1-yl)acetate] | 100 to 500 | 100 to 500 | – |

More lines, main results first:

| IC50 (CRTH2 [1]) [nM] | IC50 (CRTH2 [2]) [nM] | SMILES | ED50 [3] [mg/kg] |
| --- | --- | --- | --- |
| 5 to 100 | < 5 | Cc1c(Cc2ccc(S(=O)(=O)NC(C)C(C)(C)C)cc2)c2c(n1CC(=O)O)CCCC2 (stereo not drawn) [Example I-3, 2-(3-(4-(N-(3,3-Dimethylbutan-2-yl)sulfamoyl)benzyl)-2-methyl-4,5,6,7-tetrahydro-1H-indol-1-yl)acetic acid] | – |
| 5 to 100 | < 5 | CCOC(=O)N1CCN(S(=O)(=O)c2ccc(Cc3c4c(n(CC(=O)O)c3C)CCCC4)cc2)CC1 [Example I-5, 2-(3-(4-(4-(Ethoxycarbonyl)piperazin-1-ylsulfonyl)benzyl)-2-methyl-4,5,6,7-tetrahydro-1H-indol-1-yl)acetic acid] | – |
| 5 to 100 | < 5 | Cc1c(Cc2ccccc2S(=O)(=O)c2ccccc2)c2c(n1CC(=O)O)CCCC2 [Example I-7, 2-(2-methyl-3-(2-(phenylsulfonyl)benzyl)-4,5,6,7-tetrahydro-1H-indol-1-yl)acetic acid] | – |
| 5 to 100 | < 5 | Cc1c(Cc2ccc(S(=O)(=O)NC3CC3)cc2)c2c(n1CC(=O)O)CCCC2 [Example I-8, 2-(3-(4-(N-Cyclopropylsulfamoyl)benzyl)-2-methyl-4,5,6,7-tetrahydro-1H-indol-1-yl)acetic acid] | – |
| < 5 | < 5 | Cc1c(Cc2ccccc2S(=O)(=O)N2CCOCC2)c2c(n1CC(=O)O)CCC(F)(F)C2 [Example I-39, 2-(5,5-difluoro-2-methyl-3-(2-(morpholinosulfonyl)benzyl)-4,5,6,7-tetrahydro-1H-indol-1-yl)acetic acid] | – |
| < 5 | < 5 | Cc1c(Cc2ccccc2S(=O)(=O)c2ccccc2)c2c(n1CC(=O)O)CC(C)(C)CC2=O [Example I-48, 2-(2,6,6-trimethyl-4-oxo-3-(2-(phenylsulfonyl)benzyl)-4,5,6,7-tetrahydro-1H-indol-1-yl)acetic acid] | – |
